# Where two headings read alike, the source gives them in different places.
# Experiments:
# human TLR7 = human TLR7 (Homo sapiens (Human), UniProt Q9NYK1); assay: TLR7 inhibition reporter assay (HEK-Blue cells, SEAP reporter, gardiquimod stimulation); type: cell-based
# human TLR8 = human TLR8 (Homo sapiens (Human), UniProt Q9NR97); assay: TLR8 inhibition reporter assay (HEK-Blue cells, SEAP reporter, R848 stimulation);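 note: compounds tested from 0.05 nM to 50 µM, 22 h at 37 °C, SEAP measured with HEK-Blue Detection, inhibition relative to agonist plus DMSO versus a known inhibitor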
# Chain of human TLR8 (Q9NR97 27-1041): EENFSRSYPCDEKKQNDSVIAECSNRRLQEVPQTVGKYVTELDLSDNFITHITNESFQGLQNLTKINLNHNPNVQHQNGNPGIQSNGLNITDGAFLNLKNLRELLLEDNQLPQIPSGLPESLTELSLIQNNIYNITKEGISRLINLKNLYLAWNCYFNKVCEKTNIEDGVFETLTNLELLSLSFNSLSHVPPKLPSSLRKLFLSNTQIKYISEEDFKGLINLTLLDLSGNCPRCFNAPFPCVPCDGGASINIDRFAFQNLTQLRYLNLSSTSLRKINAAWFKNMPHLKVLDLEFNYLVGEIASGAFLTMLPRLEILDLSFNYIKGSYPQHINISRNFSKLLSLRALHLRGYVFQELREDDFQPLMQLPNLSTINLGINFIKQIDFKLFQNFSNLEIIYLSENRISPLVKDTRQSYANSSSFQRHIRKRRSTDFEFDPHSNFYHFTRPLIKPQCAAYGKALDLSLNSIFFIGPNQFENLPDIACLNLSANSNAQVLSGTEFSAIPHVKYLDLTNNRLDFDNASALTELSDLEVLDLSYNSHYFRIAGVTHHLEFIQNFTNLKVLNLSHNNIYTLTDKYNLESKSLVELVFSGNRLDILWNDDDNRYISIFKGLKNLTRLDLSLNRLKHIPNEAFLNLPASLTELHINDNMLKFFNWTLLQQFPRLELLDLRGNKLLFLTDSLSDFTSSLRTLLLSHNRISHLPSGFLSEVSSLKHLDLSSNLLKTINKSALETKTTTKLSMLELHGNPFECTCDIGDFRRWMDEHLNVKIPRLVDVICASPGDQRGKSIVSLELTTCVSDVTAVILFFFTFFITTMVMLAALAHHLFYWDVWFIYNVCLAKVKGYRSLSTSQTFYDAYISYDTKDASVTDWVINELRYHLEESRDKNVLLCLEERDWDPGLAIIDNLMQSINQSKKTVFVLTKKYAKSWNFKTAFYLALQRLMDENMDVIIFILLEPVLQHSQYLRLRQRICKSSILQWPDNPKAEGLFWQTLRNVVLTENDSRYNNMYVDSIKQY
# human TLR9 = human TLR9 (Homo sapiens (Human), UniProt Q9NR96); assay: TLR9 inhibition reporter assay (HEK-Blue cells, SEAP reporter, ODN2006 stimulation);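 note: compounds tested over 0.05 nM to 50 µM, 22 h incubation, inhibition taken as SEAP signal drop from agonist plus DMSO wells toward a known inhibitor control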
# Chain of human TLR9 (Q9NR96 26-1032): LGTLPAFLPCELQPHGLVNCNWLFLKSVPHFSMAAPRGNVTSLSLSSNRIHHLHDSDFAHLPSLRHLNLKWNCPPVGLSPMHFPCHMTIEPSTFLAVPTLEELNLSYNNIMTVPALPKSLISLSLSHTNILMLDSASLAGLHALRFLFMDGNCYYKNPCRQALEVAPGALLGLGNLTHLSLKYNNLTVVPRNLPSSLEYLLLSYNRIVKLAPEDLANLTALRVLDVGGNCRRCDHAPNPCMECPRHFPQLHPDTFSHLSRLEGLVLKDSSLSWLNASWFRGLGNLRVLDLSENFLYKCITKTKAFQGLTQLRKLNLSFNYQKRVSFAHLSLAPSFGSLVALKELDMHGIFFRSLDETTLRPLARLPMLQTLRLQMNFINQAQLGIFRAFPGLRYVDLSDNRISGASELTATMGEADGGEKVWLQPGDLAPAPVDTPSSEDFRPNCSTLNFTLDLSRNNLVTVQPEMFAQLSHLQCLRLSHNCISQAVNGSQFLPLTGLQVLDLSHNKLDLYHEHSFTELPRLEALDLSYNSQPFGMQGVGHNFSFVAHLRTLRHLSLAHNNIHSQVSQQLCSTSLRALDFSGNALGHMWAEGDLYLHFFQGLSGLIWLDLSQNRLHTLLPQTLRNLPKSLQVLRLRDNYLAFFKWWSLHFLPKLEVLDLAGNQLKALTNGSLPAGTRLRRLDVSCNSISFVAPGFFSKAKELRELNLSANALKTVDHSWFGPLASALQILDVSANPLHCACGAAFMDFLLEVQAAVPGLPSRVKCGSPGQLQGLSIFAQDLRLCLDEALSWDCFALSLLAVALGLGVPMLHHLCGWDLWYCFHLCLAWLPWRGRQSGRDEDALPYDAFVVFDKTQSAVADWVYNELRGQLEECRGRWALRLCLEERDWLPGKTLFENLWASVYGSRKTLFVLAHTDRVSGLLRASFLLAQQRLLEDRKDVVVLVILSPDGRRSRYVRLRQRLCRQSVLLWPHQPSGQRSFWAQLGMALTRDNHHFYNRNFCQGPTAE
# [1] = HEK-Blue cells overexpressing human TLR7, gardiquimod 7.5 μM
# [2] = read-out: TLR8 IC50, HEK-Blue cells overexpressing human TLR8, R848 15.9 μM
# [3] = read-out: TLR9 IC50, HEK-Blue cells overexpressing human TLR9, ODN2006 5 nM
# [4] = HEK-Blue cells, gardiquimod 7.5 μM
# [5] = read-out: TLR8 IC50, HEK-Blue cells, R848 15.9 μM
# [6] = read-out: TLR9 IC50, HEK-Blue cells, ODN2006 5 nM
# Chain of human TLR7 (Q9NYK1 27-1049): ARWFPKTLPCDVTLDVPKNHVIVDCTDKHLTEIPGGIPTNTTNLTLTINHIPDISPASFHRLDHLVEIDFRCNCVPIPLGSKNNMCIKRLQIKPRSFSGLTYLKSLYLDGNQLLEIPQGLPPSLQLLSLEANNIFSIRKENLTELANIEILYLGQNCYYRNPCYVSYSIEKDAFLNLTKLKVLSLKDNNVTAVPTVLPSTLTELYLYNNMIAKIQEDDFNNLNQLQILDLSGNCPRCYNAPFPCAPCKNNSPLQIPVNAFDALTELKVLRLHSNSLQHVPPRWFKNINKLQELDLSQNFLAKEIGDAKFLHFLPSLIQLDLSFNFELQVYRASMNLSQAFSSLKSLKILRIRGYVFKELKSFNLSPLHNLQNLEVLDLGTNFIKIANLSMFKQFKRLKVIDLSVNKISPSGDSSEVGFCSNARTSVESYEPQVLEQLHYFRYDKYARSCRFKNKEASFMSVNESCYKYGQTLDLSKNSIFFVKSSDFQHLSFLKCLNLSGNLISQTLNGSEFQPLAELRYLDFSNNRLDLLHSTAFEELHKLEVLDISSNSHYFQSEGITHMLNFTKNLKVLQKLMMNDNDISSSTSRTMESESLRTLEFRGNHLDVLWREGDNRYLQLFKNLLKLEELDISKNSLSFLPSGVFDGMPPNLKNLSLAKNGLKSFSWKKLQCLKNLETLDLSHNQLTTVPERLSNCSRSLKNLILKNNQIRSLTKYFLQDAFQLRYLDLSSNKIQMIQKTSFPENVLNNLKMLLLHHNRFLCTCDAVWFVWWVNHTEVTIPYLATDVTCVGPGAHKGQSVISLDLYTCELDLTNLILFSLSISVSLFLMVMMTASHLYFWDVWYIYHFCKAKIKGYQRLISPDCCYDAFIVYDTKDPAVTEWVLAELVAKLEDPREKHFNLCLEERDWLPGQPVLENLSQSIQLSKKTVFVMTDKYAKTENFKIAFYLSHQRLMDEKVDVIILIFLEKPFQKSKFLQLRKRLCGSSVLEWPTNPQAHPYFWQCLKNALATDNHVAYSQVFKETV
IC50 (human TLR7; [1]) [nM],IC50 (human TLR8; [2]) [nM],IC50 (human TLR9; [3]) [nM],IC50 (human TLR7; [4]) [nM],IC50 (human TLR8; [5]) [nM],IC50 (human TLR9; [6]) [nM],Compound
10.6,6.9,967,,,,"Cc1cc(-c2[nH]c3ccc(C4CCN(C(=O)[C@@H]5C[C@H](O)CCN5)CC4)cc3c2C(C)C)ccn1 [Example 581, ((2S,4R)-4-hydroxypiperidin-2-yl)(4-(3-isopropyl-2-(2-methylpyridin-4-yl)-1H-indol-5-yl)piperidin-1-yl)methanone]"
3110,13400,19400,,,,"COc1cc(-c2[nH]c3ccc(C4CCN(CC(F)(F)F)CC4)cc3c2C(C)C)ccn1 [Example 639, 3-isopropyl-2-(2-methoxypyridin-4-yl)-5-(1-(2,2,2-trifluoroethyl)piperidin-4-yl)-1H-indole]"
2.7,15.9,2240,,,,"Cc1cc(-c2[nH]c3ccc(C4CCN(CC(=O)NCCO)CC4)cc3c2C(C)C)cc(C)n1 [Example 222, 2-(4-(2-(2,6-dimethylpyridin-4-yl)-3-isopropyl-1H-indol-5-yl)piperidin-1-yl)-N-(2-hydroxyethyl)acetamide]"
489,281,1770,,,,COc1c(-c2[nH]c3ccc(C4CCNCC4)cc3c2C(C)C)cc[n+]([O-])c1C [Example 57]
5.5,30.3,992,,,,"Cc1cc(-c2[nH]c3ccc(C4CCN(C(=O)CN(C)C)CC4)cc3c2C(C)C)cc(F)n1 [Example 501, 2-(dimethylamino)-1-(4-(2-(2-fluoro-6-methylpyridin-4-yl)-3-isopropyl-1H-indol-5-yl)piperidin-1-yl)ethan-1-one]"
,,,1.3,13.6,441,"Cc1cc(-c2[nH]c3ccc(C4CCN(C(=O)C(=O)N5CCNCC5)CC4)cc3c2C(C)C)cc(C)n1 [Example 857, 1-(4-(2-(2,6-dimethylpyridin-4-yl)-3-isopropyl-1H-indol-5-yl)piperidin-1-yl)-2-(piperazin-1-yl)ethane-1,2-dione]"
60.6,29.6,1150,,,,"Cc1cc(-c2[nH]c3ccc(C4CCN(CC(O)c5ccccc5)CC4)cc3c2C(C)C)ccn1 (stereo not drawn) [Example 662, 2-(4-(3-isopropyl-2-(2-methylpyridin-4-yl)-1H-indol-5-yl)piperidin-1-yl)-1-phenylethan-1-ol]"
1.2,3.1,46,,,,"Cc1cc(-c2[nH]c3ccc(C4CCN(CC(=O)N5CCNC(=O)C5)CC4)cc3c2C(C)C)cc(C)n1 [Example 272, 4-(2-(4-(2-(2,6-dimethylpyridin-4-yl)-3-isopropyl-1H-indol-5-yl)piperidin-1-yl)acetyl)piperazin-2-one]"
10,34.6,1470,,,,"Cc1cc(-c2[nH]c3ccc(C4CCN(CC(=O)N(C)CCCO)CC4)cc3c2C(C)C)cc(C)n1 [Example 288, 2-(4-(2-(2,6-dimethylpyridin-4-yl)-3-isopropyl-1H-indol-5-yl)piperidin-1-yl)-N-(3-hydroxypropyl)-N-methylacetamide]"
6.7,8.9,1590,,,,"Cc1cc(-c2[nH]c3ccc(C4CCN(CC(=O)NCC#N)CC4)cc3c2C(C)C)cc(C)n1 [Example 239, N-(cyanomethyl)-2-(4-(2-(2,6-dimethylpyridin-4-yl)-3-isopropyl-1H-indol-5-yl)piperidin-1-yl)acetamide]"
,,,37,168,> 50000,"CNC(=O)C(=O)N1CCC(c2ccc3[nH]c(-c4ccnc(C)c4)c(C(C)C)c3c2)CC1 [Example 879, 2-(4-(3-isopropyl-2-(2-methylpyridin-4-yl)-1H-indol-5-yl)piperidin-1-yl)-N-methyl-2-oxoacetamide]"
2.1,3.7,401,,,,"CCN1CCC(c2ccc3[nH]c(-c4cc(C)nc(C)c4)c(C(C)C)c3c2)CC1 [Example 322, 2-(2,6-dimethylpyridin-4-yl)-5-(1-ethylpiperidin-4-yl)-3-isopropyl-1H-indole]"
144,73.3,1900,,,,"Cc1nccc(-c2[nH]c3ccc(C4CCN(C5CCOCC5)CC4)cc3c2C(C)C)c1C [Example 716, 2-(2,3-dimethylpyridin-4-yl)-3-isopropyl-5-(1-(tetrahydro-2H-pyran-4-yl)piperidin-4-yl)-1H-indole]"
8.8,1.8,526,,,,"Cc1cc(-c2[nH]c3ccc(C4CCN(C5CCCNC5)CC4)cc3c2C(C)C)ccn1 (stereo not drawn) [Example 703, 5-([1,3′-bipiperidin]-4-yl)-3-isopropyl-2-(2-methylpyridin-4-yl)-1H-indole]"
49,213,2760,,,,"COc1cc(-c2[nH]c3ccc(C4CCNCC4)cc3c2C(C)C)cc(C2CC2)n1 [Example 486, 2-(2-cyclopropyl-6-methoxypyridin-4-yl)-3-isopropyl-5-(piperidin-4-yl)-1H-indole]"
5.7,62.9,17200,,,,"CNC(=O)C(=O)N1CCC(c2ccc3[nH]c(-c4cc(C)nc(C)c4)c(C(C)C)c3c2)CC1 [Example 204, 2-(4-(2-(2,6-dimethylpyridin-4-yl)-3-isopropyl-1H-indol-5-yl)piperidin-1-yl)-N-methyl-2-oxoacetamide]"
5.4,12.4,759,,,,"COC1CN(C(=O)CN2CCC(c3ccc4[nH]c(-c5cc(C)nc(C)c5)c(C(C)C)c4c3)CC2)C1 [Example 226, 2-(4-(2-(2,6-dimethylpyridin-4-yl)-3-isopropyl-1H-indol-5-yl)piperidin-1-yl)-1-(3-methoxyazetidin-1-yl)ethan-1-one]"
13.1,67.2,937,,,,"Cc1cc(-c2[nH]c3ccc(C4CCN(C(=O)C5(C)CCN(C(C)C)CC5)CC4)cc3c2C(C)C)cc(C)n1 [Example 177, (4-(2-(2,6-dimethylpyridin-4-yl)-3-isopropyl-1H-indol-5-yl)piperidin-1-yl)(1-isopropyl-4-methylpiperidin-4-yl)methanone]"
0.6,5.2,446,,,,"Cc1cc(-c2[nH]c3ccc(C4CCNCC4)cc3c2C(C)C(F)(F)F)cc(C)n1 (stereo not drawn) [Example 92, 2-(2,6-dimethylpyridin-4-yl)-5-(piperidin-4-yl)-3-(1,1,1-trifluoropropan-2-yl)-1H-indole]"
9.6,32.4,954,,,,"Cc1cc(-c2[nH]c3ccc(C4CCN(CC(=O)N(C)CC(C)C)CC4)cc3c2C(C)C)cc(C)n1 [Example 245, 2-(4-(2-(2,6-dimethylpyridin-4-yl)-3-isopropyl-1H-indol-5-yl)piperidin-1-yl)-N-isobutyl-N-methylacetamide]"
,,,55.1,175,28000,"Cc1cc(-c2[nH]c3ccc(C4CCN(C(=O)C(=O)N(C)C)CC4)cc3c2C(C)C)ccn1 [Example 878, 2-(4-(3-isopropyl-2-(2-methylpyridin-4-yl)-1H-indol-5-yl)piperidin-1-yl)-N,N-dimethyl-2-oxoacetamide]"
0.6,13.3,909,,,,"Cc1cc(-c2[nH]c3ccc(C4CCN(C(=O)CNC5CCOC5)CC4)cc3c2C(C)C)cc(C)n1 (stereo not drawn) [Example 387, 1-(4-(2-(2,6-dimethylpyridin-4-yl)-3-isopropyl-1H-indol-5-yl)piperidin-1-yl)-2-((tetrahydrofuran-3-yl)amino)ethan-1-one]"

# Reference: patent US10660877B2 (BRISTOL-MYERS SQUIBB COMPANY, priority 2016, dated 2020)
